# Where no end group is shown, it is not given here.
# What was measured:
# [1] = test system: microorganisms tested (standard and resistant bacterial strains); assay: MIC range over the strains tested and therapeutic index; format: cell-based; details: for MIC range: range over the strains tested, micro broth dilution
# [2] = test system: MRSA; format: cell-based, methicillin-resistant Staphylococcus aureus; details: for FIC index of Cefotaxime in combination with the peptide, MRSA / FIC index of Chloramphenicol in combination with the peptide, MRSA / FIC index of Erythromycin in combination with the peptide, MRSA: FIC(A) = MIC of antibiotic in the presence of peptide / MIC of antibiotic alone; for MIC of antibiotic alone, MRSA: MTT indicator
# [3] = test system: S. pyogenes; format: cell-based, Streptococcus pyogenes; details: micro broth dilution, 37 °C, 24 h, MTT indicator, triplicates
# [4] = test system: E. coli^R; format: cell-based, Escherichia coli; details: for FIC index of Cefotaxime in combination with the peptide, E. coli^R / FIC index of Chloramphenicol in combination with the peptide, E. coli^R / FIC index of Erythromycin in combination with the peptide, E. coli^R: FIC(A) = MIC of antibiotic in the presence of peptide / MIC of antibiotic alone; for FIC index of peptide in combination with Cefotaxime, E. coli^R / FIC index of peptide in combination with Chloramphenicol, E. coli^R / FIC index of peptide in combination with Erythromycin, E. coli^R: checkerboard, FIC(A)+FIC(P); for FIC index of peptide in combination with Cefotaxime, E. coli^R / FIC index of peptide in combination with Chloramphenicol, E. coli^R / FIC index of peptide in combination with Erythromycin, E. coli^R / MIC of antibiotic alone, E. coli: 37 °C, 24 h; for MIC of antibiotic alone, E. coli: resistant strain, MTT indicator
# [5] = test system: S. typhi^N; format: cell-based, Salmonella typhi; details: micro broth dilution, 37 °C, 24 h, MTT indicator, triplicates
# [6] = test system: S. aureus; format: cell-based, Staphylococcus aureus; details: micro broth dilution, 37 °C, 24 h, MTT indicator, triplicates
# [7] = test system: human erythrocytes; assay: Hemolytic activity; format: cell-based; details: 1% human erythrocytes in PBS pH 7.40, 37 °C, 1 h, absorbance 570 nm
# [8] = test system: E. coli^N (standard strain); format: cell-based, Escherichia coli; details: micro broth dilution, 37 °C, 24 h, MTT indicator, triplicates
# [9] = test system: E. coli^R (resistant strain); format: cell-based, Escherichia coli; details: micro broth dilution, 37 °C, 24 h, MTT indicator, triplicates
# [10] = test system: K. pneumoniae; format: cell-based, Klebsiella pneumoniae; details: micro broth dilution, 37 °C, 24 h, MTT indicator, triplicates
# [11] = test system: S. typhi^R; format: cell-based, Salmonella typhi; details: micro broth dilution, 37 °C, 24 h, MTT indicator, triplicates
# [12] = test system: MRSA; format: cell-based, methicillin-resistant Staphylococcus aureus; details: micro broth dilution, 37 °C, 24 h, MTT indicator, triplicates
# [13] = test system: S. typhi^R; format: cell-based, Salmonella typhi; details: for FIC index of Cefotaxime in combination with the peptide, S. typhi^R / FIC index of Chloramphenicol in combination with the peptide, S. typhi^R / FIC index of Erythromycin in combination with the peptide, S. typhi^R: FIC(A) = MIC of antibiotic in the presence of peptide / MIC of antibiotic alone; for FIC index of peptide in combination with Cefotaxime, S. typhi^R / FIC index of peptide in combination with Chloramphenicol, S. typhi^R / FIC index of peptide in combination with Erythromycin, S. typhi^R: checkerboard, FIC(A)+FIC(P); for FIC index of peptide in combination with Cefotaxime, S. typhi^R / FIC index of peptide in combination with Chloramphenicol, S. typhi^R / FIC index of peptide in combination with Erythromycin, S. typhi^R / MIC of antibiotic alone, S. typhi: 37 °C, 24 h; for MIC of antibiotic alone, S. typhi: resistant strain, MTT indicator
# [14] = checkerboard, FIC(A)+FIC(P), 37 °C, 24 h
Molecule,"FIC index of Cefotaxime in combination with the peptide, MRSA [2]","FIC index of Chloramphenicol in combination with the peptide, MRSA [2]","FIC index of Erythromycin in combination with the peptide, MRSA [2]","Minimum inhibitory concentration; MIC, S. pyogenes [3] [µM]","FIC index of Cefotaxime in combination with the peptide, E. coli^R [4]","FIC index of Chloramphenicol in combination with the peptide, E. coli^R [4]","FIC index of Erythromycin in combination with the peptide, E. coli^R [4]","Minimum inhibitory concentration; MIC, S. typhi^N [5] [µM]","Minimum inhibitory concentration; MIC, S. aureus [6] [µM]",MHC (minimum concentration of peptide that causes hemolysis) [7] [mM],"Minimum inhibitory concentration; MIC, E. coli^N [8] [µM]","Minimum inhibitory concentration; MIC, E. coli^R [9] [µM]","Minimum inhibitory concentration; MIC, K. pneumoniae [10] [µM]","Minimum inhibitory concentration; MIC, S. typhi^R [11] [µM]","Minimum inhibitory concentration; MIC, MRSA [12] [µM]","FIC index of Cefotaxime in combination with the peptide, S. typhi^R [13]","FIC index of Chloramphenicol in combination with the peptide, S. typhi^R [13]","FIC index of Erythromycin in combination with the peptide, S. typhi^R [13]","MIC of antibiotic alone, MRSA ([2]; 37 °C, 24 h) [µM]","MIC of antibiotic alone, S. typhi [13] [µM]",also measured
FALSILGALGIKK [BRGP-006],0.50,0.25,1.00,470,0.50,0.25,0.12,>1879,939,1.503,470,470,1879,235,235,0.50,0.50,1.00,–,–,"MIC range [1]: 235 to 1879 µM; FIC index of peptide in combination with Cefotaxime, MRSA [2, 14]: 0.75; FIC index of peptide in combination with Chloramphenicol, MRSA [2, 14]: 0.75; FIC index of peptide in combination with Erythromycin, MRSA [2, 14]: 1.030; FIC index of peptide in combination with Cefotaxime, E. coli^R [4]: 2.50; FIC index of peptide in combination with Chloramphenicol, E. coli^R [4]: 0.75; FIC index of peptide in combination with Erythromycin, E. coli^R [4]: 0.25; FIC index of peptide in combination with Cefotaxime, S. typhi^R [13]: 1.00; FIC index of peptide in combination with Chloramphenicol, S. typhi^R [13]: 0.53; FIC index of peptide in combination with Erythromycin, S. typhi^R [13]: 1.50"
"CC[C@H]1OC(=O)[C@H](C)[C@@H](O[C@H]2C[C@@](C)(OC)[C@@H](O)[C@H](C)O2)[C@H](C)[C@@H](O[C@@H]2O[C@H](C)C[C@H](N(C)C)[C@H]2O)[C@](C)(O)C[C@@H](C)C(=O)[C@H](C)[C@@H](O)[C@]1(C)O [Erythromycin, reference compound]",–,–,–,–,–,–,–,–,–,–,–,–,–,–,–,–,–,–,1.3,21.3,"MIC of antibiotic alone, E. coli [4]: 85.2 µM"
GIKGALKSILFAL [BRGP-005],0.50,0.50,1.00,470,0.25,0.25,0.12,>1879,>1879,0.188,470,235,>1879,470,>1879,0.50,1.00,0.50,–,–,"Therapeutic Indices (MHC/MIC) ([1]; range over the MIC range): 0.80 to 0.40; MIC range [1]: 235 to 470 µM; FIC index of peptide in combination with Cefotaxime, E. coli^R [4]: 2.25; FIC index of peptide in combination with Chloramphenicol, E. coli^R [4]: 1.25; FIC index of peptide in combination with Erythromycin, E. coli^R [4]: 0.37; FIC index of peptide in combination with Cefotaxime, S. typhi^R [13]: 0.75; FIC index of peptide in combination with Chloramphenicol, S. typhi^R [13]: 1.032; FIC index of peptide in combination with Erythromycin, S. typhi^R [13]: 0.63"
KGGAIKSLFLILA [BRGP-003],0.50,0.50,0.54,>1879,0.50,1.00,1.00,>1879,>1879,1.127,>1879,>1879,>1879,>1879,>1879,1.00,1.00,–,–,–,–
FLIKSLAGAKGIL [BRGP-002],0.50,1.00,1.00,>1879,–,0.50,–,>1879,>1879,1.879,>1879,>1879,>1879,>1879,>1879,1.00,1.00,–,–,–,–
"CO/N=C(\C(=O)N[C@@H]1C(=O)N2C(C(=O)O)=C(COC(C)=O)CS[C@H]12)c1csc(N)n1 [Cefotaxime, reference compound]",–,–,–,–,–,–,–,–,–,–,–,–,–,–,–,–,–,–,34.3,68.6,–
KGIKGALSILFAL [BRGP-004],0.50,0.50,0.54,>1879,0.50,0.50,0.12,>1879,>1879,1.503,>1879,>1879,>1879,>1879,>1879,1.00,1.00,0.50,–,–,–
PQQYPEMNTRRNW [BRGP-007],–,–,–,>1454,–,–,–,>1454,>1454,1.454,>1454,>1454,>1454,>1454,>1454,–,–,–,–,–,–
"O=C(N[C@H](CO)[C@H](O)c1ccc([N+](=O)[O-])cc1)C(Cl)Cl [Chloramphenicol, reference compound]",–,–,–,–,–,–,–,–,–,–,–,–,–,–,–,–,–,–,193.4,6,"MIC of antibiotic alone, E. coli [4]: 386.8 µM"

# Source: PMC10558864 (Heliyon, 2023)
